The values below are quoted from earlier work in article PMC4871733 (Nature chemical biology, 2016).

For data set [1] the following is noted: after 30 minute exposure.
For data set [2] the following is noted: after 30 minute exposure. This is another data set of the same source.
For data set [3] the following is noted: after 30 minute exposure. The source holds these as a separate data set.
Experiment in data set [4]: not given
This is another data set of the same source.

Regarding `Cn1c2cc([S+](C)[O-])sc2c2cnn(Cc3cccc(N)c3)c(=O)c21` (centres unmarked) [ML265], the Efflux ratio is listed as 1.35. The “Stability in rat liver microsomes” value in data set [1] is greater than 90%. The “Stability in mouse liver microsomes” value in data set [2] was greater than 90%. Moreover, the “Stability in human liver microsomes” value in data set [3] is listed as greater than 90%. Moreover, in data set [4], the Aqueous kinetic solubility is recorded as 79 µM.
